# Experimental data: paper PMC9862588, “The Bi-Functional Paxilline Enriched in Skin Secretion of Tree Frogs (Hyla japonica) Targets the KCNK18 and BKCa Channels” (Toxins, 2023)
# Target: T1, KCNK18 (Rattus norvegicus, UniProt Q6Q1P3)
# T1 sequence (Q6Q1P3 1-405): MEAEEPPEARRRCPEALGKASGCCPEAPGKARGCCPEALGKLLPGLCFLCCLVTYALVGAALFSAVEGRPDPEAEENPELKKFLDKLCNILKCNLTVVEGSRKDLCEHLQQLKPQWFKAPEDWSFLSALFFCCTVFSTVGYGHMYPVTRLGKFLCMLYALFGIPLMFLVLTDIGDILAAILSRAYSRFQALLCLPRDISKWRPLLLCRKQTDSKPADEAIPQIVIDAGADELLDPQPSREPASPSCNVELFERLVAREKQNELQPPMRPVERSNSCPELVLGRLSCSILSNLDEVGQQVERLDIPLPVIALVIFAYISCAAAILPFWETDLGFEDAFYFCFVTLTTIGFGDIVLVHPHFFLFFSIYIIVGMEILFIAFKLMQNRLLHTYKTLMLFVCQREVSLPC
# Assay: whole-cell patch clamp of transfected HEK293 cells, dose-response; loss of effect on F375 swap and F167A
# Type: cell-based
smiles,measurement,value
"CC(C)(O)[C@H]1O[C@H]2CC[C@@]3(C)[C@@](O)(CC[C@H]4Cc5c([nH]c6ccccc56)[C@@]43C)C2=CC1=O [PAX, Paxilline]",IC50,4.13 ± 0.04 µM
